# Reference: patent publication US20170079278A1 (priority 2015, published 2017)
# Legend:
# [1] = tested on: Coquito (Cyperus rotundus); test: Field trial atrazine +/- EPAC, weed control in corn; type: in vivo
# [2] = tested on: Mycosphaerella fijiensis; test: Sensitivity test of ascospores (germination, germ tube elongation) to azoxystrobin +/- EPAC-F; type: cell-based; settings: Black Sigatoka, banana crops
# Method: In a study in experimental conditions the effectiveness of EPAC-F was evaluated by a sensitivity test to Mycosphaerella fijiensis (from a banana farm in Santa Marta), causal agent of Black Sigatoka, following the recommendations of the Fungicide Resistance Action Committee's (FRAC) to strobilurin fungicides from.
# The test is based on measuring the length elongation ascospore germ tube that germinated in culture medium 2% agar, modified with a number of products made by mixing the adjuvant, EPAC-F and fungicide Liege 25 SC, whose active ingredient is Azoxystrobin 250 g/L. Then the following 11 treatments were evaluated are as follows:
# T1. Azoxystrobin 25% SC 100 at a dose of 400 cc/Ha. T2. Azoxystrobin 25 SC 50% at doses of 400 cc/Ha.+EPAC 10% T3. Azoxystrobin 25 SC 50% at doses of 400 cc/Ha.+EPAC 20% T4. Azoxystrobin 25 SC 70% at doses of 400 cc/Ha.+EPAC 10% T5. Azoxystrobin 25 SC 60% at doses of 400 cc/Ha.+EPAC 10% T1A. Azoxystrobin SC 25 50% at doses of 200 cc/Ha.+EPAC5% T2A. Azoxystrobin SC 25 50% at doses of 200 cc/Ha.+10% EPAC T3A. Azoxystrobin SC 25 50% at doses of 200 cc/Ha.+15% EPAC T4A. Azoxystrobin SC 25 25% at doses of 200 cc/Ha.+10% EPAC T5A. Azoxystrobin SC 25 25% at doses of 200 cc/Ha.+15% EPAC
# The control process involved the use of fungicide Amystar 50 WG with the active ingredient Azoxystrobin 500 g/L. This product is considered direct competition from […]. […]
# [3] = tested on: Paja de Zorro (Leptochloa filiformis); test: Field trial butachlor +/- EPAC, weed control; type: in vivo; settings: butachlor section
# [4] = tested on: Coffe Borer Beetle; test: Field trial chlorpyrifos +/- EPAC, pest control in coffee fields; type: in vivo
# [5] = tested on: Paja de Zorro (Leptochloa filiformis); test: Field trial clomazone +/- EPAC, weed control in rice fields; type: in vivo
# [6] = tested on: White Fly (Aleyrodidae); test: Field trial cypermethrin +/- EPAC, pest control in tomato crops; type: in vivo
# [7] = tested on: Piñita (Murdania Nudiflora); test: Field trial glyphosate +/- EPAC, weed control in rice; type: in vivo; settings: A = chemical alone at 100%, B = reduced dose + EPAC
# [8] = tested on: Cortadera (Cortaderia Selloana); test: as above; type: in vivo; settings: A = 100% alone, B = reduced dose + EPAC
# [9] = tested on: Guardarocio (Digitaria Sanguinalis); test: as above; type: in vivo; settings: A = 100% alone, B = reduced dose + EPAC
# [10] = tested on: Leptocloa; test: as above; type: in vivo; settings: A = 100% alone, B = reduced dose + EPAC
# [11] = tested on: Liendrepuerco (Echinochia Colonum); test: as above; type: in vivo; settings: A = 100% alone, B = reduced dose + EPAC
# [12] = tested on: adult T. vaporariorum; White Fly (Aleyrodidae); test: Methamidophos/EPAC-I on adult whitefly on tomato; type: in vivo, Trialeurodes vaporariorum; set-up: concentration or dose not given beside the values; settings: tomato crops
# Method: The effectiveness of EPAC-I was assessed with adult T. vaporariorum under experimental conditions taking into account the percentage of mortality by direct and indirect contact with the insects.
# The completion of the performance test EPAC-I with adults of T. vaporariorum was carried out directly on whitefly adults collected from breeding individuals in the “Bio-Systems Center”. These were placed in a box with mesh which allows passage of the droplets in the spray. Product application was performed with an airbrush at a distance of 30 cm and a 45° angle on the application unit, achieving a uniform coverage with fine droplets. The quality was verified through application of a strip (2×2 cm) of water-sensitive paper.
# To assemble the test, from tomato plants we selected randomly 5 leaflets per treatment and then were sprayed and once dried, in each bags mesh were placed into which 10 adults whiteflies were placed, and each of these units was duly marked according to the assessed treatment. Tomato plants with the evaluation units were maintained in a room with controlled temperature (20±1° C.), relative humidity (70±10%) and photoperiod of 12 h. The evaluation design was completely randomized and readings from day one after application to day 10 were performed.
# [13] = tested on: Bledo (Amaranthus Albus); test: Field trial oxadiazone +/- EPAC, weed control in rice fields; type: in vivo
# [14] = tested on: Corn; test: Field trial paraquat +/- EPAC, crop dissecation; type: in vivo; settings: A = 100% alone, B = 40% + EPAC 4%
# [15] = tested on: Falsa Caminadora (Ischaemum rugosum); test: Field trial pendimethalin +/- EPAC, weed control in rice fields; type: in vivo
# [16] = tested on: White Fly (Aleyrodidae); test: Field trial profenophos +/- EPAC, pest control in tomato crops; type: in vivo
smiles,measurement,setting,value
CCNc1nc(Cl)nc(NC(C)C)n1 [Atrazine],% of Weeds Controlled,[1]; 7 Days,93%
same,% of Weeds Controlled,[1]; 14 Days,90%
same,% of Weeds Controlled,[1]; 21 Days,90%
CO/C=C(\C(=O)OC)c1ccccc1Oc1cc(Oc2ccccc2C#N)ncn1 [Axozystrobin],Fungus Inhibition: % Ascospore Germination Inhibited,[2],24%
same,Fungus Inhibition: % Ascospore elongation Inhibition (>150 microm),[2],37%
CCCCOCN(C(=O)CCl)c1c(CC)cccc1CC [Butachlor],% of Weeds Controlled,[3]; 3 Days,93%
same,% of Weeds Controlled,[3]; 8 Days,100%
same,% of Weeds Controlled,[3]; 15 Days,100%
CCOP(=S)(OCC)Oc1nc(Cl)c(Cl)cc1Cl [Chlorpyrifos],% of Pest Controlled,[4]; 7 Days,88%
same,% of Pest Controlled,[4]; 14 Days,83%
same,% of Pest Controlled,[4]; 21 Days,73%
CC1(C)CON(Cc2ccccc2Cl)C1=O [Clomazone],% of Weeds Controlled,[5]; 3 Days,97%
same,% of Weeds Controlled,[5]; 8 Days,93%
same,% of Weeds Controlled,[5]; 15 Days,100%
CC1(C)C(C=C(Cl)Cl)C1C(=O)OC(C#N)c1cccc(Oc2ccccc2)c1 (stereo not shown) [Cypermethrin],% of Pest Controlled,[6]; 3 Days,90%
same,% of Pest Controlled,[6]; 8 Days,87%
same,% of Pest Controlled,[6]; 15 Days,76%
"O=C(O)CNCP(=O)(O)O [Glyphosate, N-phosphonomethyl-glycine]",% of Weeds Controlled,[7],83%
same,% of Weeds Controlled,[8],90%
same,% of Weeds Controlled,[9],82%
same,% of Weeds Controlled,[10],100%
same,% of Weeds Controlled,[11],93%
"COP(N)(=O)SC (stereo not shown) [Metamidhophos, O, S-dimethyl-phosphoramidothioate]",% of Pest Controlled,[12]; 1 Day,10%
same,% of Pest Controlled,[12]; 4 Days,30%
same,% of Pest Controlled,[12]; 6 Days,42%
same,% of Pest Controlled,[12]; 8 Days,46%
same,% of Pest Controlled,[12]; 10 Days,50%
CC(C)Oc1cc(-n2nc(C(C)(C)C)oc2=O)c(Cl)cc1Cl [Oxadiazone],% of Weeds Controlled,[13]; 3 Days,87%
same,% of Weeds Controlled,[13]; 8 Days,97%
same,% of Weeds Controlled,[13]; 15 Days,100%
C[n+]1ccc(-c2cc[n+](C)cc2)cc1 [Paraquat],% of Crop Dissecated,[14],100%
CCC(CC)Nc1c([N+](=O)[O-])cc(C)c(C)c1[N+](=O)[O-] [Pendimenthaline],% of Weeds Controlled,[15]; 3 Days,86.7%
same,% of Weeds Controlled,[15]; 8 Days,96.7%
same,% of Weeds Controlled,[15]; 15 Days,93%
CCCSP(=O)(OCC)Oc1ccc(Br)cc1Cl (stereo not shown) [Profenophos],% of Pest Controlled,[16]; 7 Days,92%
same,% of Pest Controlled,[16]; 12 Days,82%
same,% of Pest Controlled,[16]; 15 Days,75%
